From patent US20250197372A1 (priority 2020, published 2025)
Where two headings read alike, the source gives them in different places.

Legend:
Assay type in all cases: biochemical
[1] = biological target: T1, recombinant alpha-glucosidase I (human full-length glucosidase I, Glu 1) (Homo sapiens, UniProt Q13724); assay: Alpha-glucosidase I assay (Amplex Red glucose detection, synthetic trisaccharide substrate)
T1 construct: 6-His (C); made in house; host or cells: HEK-293T cells transduced with BacMam virus (virus raised in Sf9)
T1 sequence (Q13724 1-837): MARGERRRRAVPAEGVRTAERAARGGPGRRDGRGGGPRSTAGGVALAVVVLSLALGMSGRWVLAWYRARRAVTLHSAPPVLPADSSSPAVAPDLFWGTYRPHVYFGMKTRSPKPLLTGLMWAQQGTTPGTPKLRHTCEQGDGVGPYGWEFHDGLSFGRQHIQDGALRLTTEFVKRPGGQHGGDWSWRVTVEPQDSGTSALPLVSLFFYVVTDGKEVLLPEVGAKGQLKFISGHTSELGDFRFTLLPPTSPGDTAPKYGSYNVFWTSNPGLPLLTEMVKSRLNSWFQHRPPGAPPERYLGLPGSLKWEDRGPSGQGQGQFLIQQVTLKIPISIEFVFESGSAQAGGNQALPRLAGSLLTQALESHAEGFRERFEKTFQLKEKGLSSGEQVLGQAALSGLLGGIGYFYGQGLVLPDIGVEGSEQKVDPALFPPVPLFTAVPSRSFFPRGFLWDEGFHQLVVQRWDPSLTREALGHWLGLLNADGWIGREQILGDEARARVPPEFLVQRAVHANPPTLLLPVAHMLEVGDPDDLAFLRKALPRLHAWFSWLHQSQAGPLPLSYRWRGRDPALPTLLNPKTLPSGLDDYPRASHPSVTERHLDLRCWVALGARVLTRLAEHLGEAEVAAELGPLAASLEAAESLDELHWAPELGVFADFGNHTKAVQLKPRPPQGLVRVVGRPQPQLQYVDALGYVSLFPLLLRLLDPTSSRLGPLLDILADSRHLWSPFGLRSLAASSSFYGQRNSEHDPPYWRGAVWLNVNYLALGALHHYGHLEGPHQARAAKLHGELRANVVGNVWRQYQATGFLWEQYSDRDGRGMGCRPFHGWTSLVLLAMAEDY
In short: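 Human full-length glucosidase I, His-tagged, […] and Ni-purified. Enzyme preincubated with compound dilutions 60 min at 37° C, then synthetic trisaccharide substrate 90 min at 37° C; stopped with 1.5M Tris pH 8.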

[2] = biological target: T2, recombinant alpha-glucosidase II (murine full-length glucosidase II, alpha and beta subunits, Glu 2) (Mus musculus, UniProt Q8BHN3); assay: Alpha-glucosidase II assay (4-methylumbelliferyl-alpha-D-pyranoside substrate, fluorescence); conditions: Glucosidase 2; read-out: Glu2 IC50
T2 construct: made in house; host or cells: HEK-293T cells transduced with BacMam viruses (75% alpha, 25% beta); protein harvested from culture supernatant

[3] = biological target: rat maltase (partially purified alpha-glucosidase from intestinal rat powder); assay: Intestinal alpha-glucosidase assay, maltose substrate (Glucose GO Kit)
In short: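 Rat intestinal enzyme prep + test cpd dilutions, 60 min 37 °C; add maltose (maltase) or sucrose (sucrase), 30 min 37 °C; stop 90 °C 5 min. Glucose readout (glucose oxidase kit). IC50 from 4-PL fit of % inhibition vs conc.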

[4] = Glucosidase 1, read-out: Glu 1 IC50

T2 sequence (O08795 15-521): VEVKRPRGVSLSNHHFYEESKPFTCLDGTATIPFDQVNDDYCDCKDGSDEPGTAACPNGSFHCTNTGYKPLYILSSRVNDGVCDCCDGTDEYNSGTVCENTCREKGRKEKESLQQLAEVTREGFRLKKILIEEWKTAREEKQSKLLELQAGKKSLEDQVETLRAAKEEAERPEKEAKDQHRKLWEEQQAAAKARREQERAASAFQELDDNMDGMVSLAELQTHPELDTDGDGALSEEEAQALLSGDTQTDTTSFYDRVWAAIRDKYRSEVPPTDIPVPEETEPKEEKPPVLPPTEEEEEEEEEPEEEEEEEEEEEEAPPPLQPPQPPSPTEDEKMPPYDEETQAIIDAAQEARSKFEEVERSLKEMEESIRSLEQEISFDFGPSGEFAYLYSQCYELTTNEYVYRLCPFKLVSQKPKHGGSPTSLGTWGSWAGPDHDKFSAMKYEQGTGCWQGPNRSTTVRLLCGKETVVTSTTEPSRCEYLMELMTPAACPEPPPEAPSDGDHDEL
T2 sequence (Q8BHN3 33-944): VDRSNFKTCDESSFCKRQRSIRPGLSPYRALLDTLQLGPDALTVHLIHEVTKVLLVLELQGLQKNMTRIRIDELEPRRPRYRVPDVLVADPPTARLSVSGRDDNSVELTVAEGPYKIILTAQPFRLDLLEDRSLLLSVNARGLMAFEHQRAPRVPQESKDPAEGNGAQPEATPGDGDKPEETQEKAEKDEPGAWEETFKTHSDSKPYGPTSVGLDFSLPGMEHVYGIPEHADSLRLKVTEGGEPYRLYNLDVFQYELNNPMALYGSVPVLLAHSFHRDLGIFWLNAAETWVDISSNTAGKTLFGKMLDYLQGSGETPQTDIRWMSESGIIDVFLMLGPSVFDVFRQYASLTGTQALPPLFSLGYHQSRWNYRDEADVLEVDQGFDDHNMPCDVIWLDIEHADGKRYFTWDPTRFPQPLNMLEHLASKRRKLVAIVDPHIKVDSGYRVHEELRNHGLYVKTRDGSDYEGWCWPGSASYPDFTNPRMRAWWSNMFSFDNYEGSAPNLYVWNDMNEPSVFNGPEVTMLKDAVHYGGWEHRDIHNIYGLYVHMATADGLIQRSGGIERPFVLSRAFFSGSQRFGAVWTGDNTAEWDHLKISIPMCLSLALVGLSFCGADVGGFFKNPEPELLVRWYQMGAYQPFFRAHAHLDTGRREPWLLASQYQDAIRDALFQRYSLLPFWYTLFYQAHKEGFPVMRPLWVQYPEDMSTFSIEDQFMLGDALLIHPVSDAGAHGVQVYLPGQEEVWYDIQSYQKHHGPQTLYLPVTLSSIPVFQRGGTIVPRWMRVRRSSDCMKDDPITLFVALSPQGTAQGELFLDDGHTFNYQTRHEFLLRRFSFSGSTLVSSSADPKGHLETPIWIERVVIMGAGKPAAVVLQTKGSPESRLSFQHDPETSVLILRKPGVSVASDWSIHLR

`COc1cc(NCCCCCCN2C[C@H](O)[C@@H](O)[C@H](O)[C@H]2CO)cc(C2CCCCC2)c1` [Compound 1148, (2R,3R,4R,5S)-1-{6-[(3-cyclohexyl-5-methoxyphenyl)amino]hexyl}-2-(hydroxymethyl)piperidine-3,4,5-triol] was tested, and the IC50 [1, 4] was 0.372 µM, the IC50 [2] was under 0.001 µM and the IC50 [3] was under 0.001 µM.

`COc1cc(-c2ncco2)ccc1NCCCCCCN1C[C@H](O)[C@@H](O)[C@H](O)[C@H]1CO` [Compound 1207, (2R,3R,4R,5S)-2-(hydroxymethyl)-1-(6-{[2-methoxy-4-(1,3-oxazol-2-yl)phenyl]amino}hexyl)piperidine-3,4,5-triol] was tested, and the IC50 [1, 4] was 0.118 µM, the IC50 [2] was 0.014 µM and the IC50 [3] was 0.007 µM.

With `OC[C@@H]1[C@@H](O)[C@H](O)[C@@H](O)CN1CCc1ccc(CCNc2cc(Cl)cc(-c3ccco3)c2)cc1` [Compound 1159, (2R,3R,4R,5S)-1-{2-[4-(2-{[3-chloro-5-(furan-2-yl)phenyl]amino}ethyl)phenyl]ethyl}-2-(hydroxymethyl)piperidine-3,4,5-triol] the IC50 [1, 4] was 0.183 µM, the IC50 [2] was 0.091 µM and the IC50 [3] was 0.025 µM.

Compound `OC[C@@H]1[C@@H](O)[C@H](O)[C@@H](O)CN1CCCCCCNc1ccc(-c2cnccn2)cc1Cl` [Compound 1198, (2R,3R,4R,5S)-1-(6-{[2-chloro-4-(pyrazin-2-yl)phenyl]amino}hexyl)-2-(hydroxymethyl)piperidine-3,4,5-triol] has an IC50 [1, 4] of 0.012 µM, an IC50 [2] of 0.017 µM and an IC50 [3] of under 0.001 µM.

In the case of `COc1cc(NCCCCCCN2C[C@H](O)[C@@H](O)[C@H](O)[C@H]2CO)cc(C2=CCCO2)c1` [Compound 1147, (2R,3R,4R,5S)-1-(6-{[3-(4,5-dihydrofuran-2-yl)-5-methoxyphenyl]amino}hexyl)-2-(hydroxymethyl)piperidine-3,4,5-triol], the IC50 [1, 4] is reported as 0.263 µM, the IC50 [2] is reported as 0.034 µM and the IC50 [3] is reported as 0.008 µM.

`CS(=O)(=O)c1cc(NCCCCCCN2C[C@H](O)[C@@H](O)[C@H](O)[C@H]2CO)cc(-c2ncccn2)c1` [Compound 1128, (2R,3R,4R,5S)-2-(hydroxymethyl)-1-(6-{[3-methanesulfonyl-5-(pyrimidin-2-yl)phenyl]amino}hexyl)piperidine-3,4,5-triol] was tested, and the IC50 [1, 4] was 0.116 µM, the IC50 [2] was 0.001 µM and the IC50 [3] was under 0.001 µM.

Compound `[N-]=[N+]=Nc1ccc(NCc2ccc(CN3C[C@H](O)[C@@H](O)[C@H](O)[C@H]3CO)cc2)c([N+](=O)[O-])c1` [Compound 1170, (2R,3R,4R,5S)-1-[(4-{[(4-azido-2-nitrophenyl)amino]methyl}phenyl)methyl]-2-(hydroxymethyl)piperidine-3,4,5-triol] has an IC50 [1, 4] of 0.004 µM, an IC50 [2] of under 0.001 µM and an IC50 [3] of under 0.001 µM.

In the case of `OC[C@@H]1[C@@H](O)[C@H](O)[C@@H](O)CN1Cc1ccc(CNc2ccc(N3CCOCC3)cc2)cc1` [Compound 1068], the IC50 [1] is reported as 0.122 µM, the IC50 [2] is reported as 1.58 µM and the IC50 [3] is reported as 0.049 µM.

With `[N-]=[N+]=Nc1ccc(NCCc2cc(CCN3C[C@H](O)[C@@H](O)[C@H](O)[C@H]3CO)cs2)c([N+](=O)[O-])c1` [Compound 1179, (2R,3R,4R,5S)-1-[2-(5-{2-[(4-azido-2-nitrophenyl)amino]ethyl}thiophen-3-yl)ethyl]-2-(hydroxymethyl)piperidine-3,4,5-triol] the IC50 [1, 4] was under 0.001 µM, the IC50 [2] was under 0.001 µM and the IC50 [3] was 0.001 µM.

`N#Cc1cc(Cl)cc(NCCc2ccc(CCN3C[C@H](O)[C@@H](O)[C@H](O)[C@H]3CO)cc2)c1` [Compound 1134, 3-chloro-5-{[2-(4-{2-[(2R,3R,4R,5S)-3,4,5-trihydroxy-2-(hydroxymethyl)piperidin-1-yl]ethyl}phenyl)ethyl]amino}benzonitrile] was tested, and the IC50 [1, 4] was 0.64 µM, the IC50 [2] was 0.001 µM and the IC50 [3] was 0.13 µM.

In the case of `OC[C@@H]1[C@@H](O)[C@H](O)[C@@H](O)CN1CCCCCCNc1ccc(-c2ncco2)cc1Cl` [Compound 1203, (2R,3R,4R,5S)-1-(6-{[2-chloro-4-(1,3-oxazol-2-yl)phenyl]amino}hexyl)-2-(hydroxymethyl)piperidine-3,4,5-triol], the IC50 [1, 4] is reported as 0.003 µM, the IC50 [2] is reported as under 0.001 µM and the IC50 [3] is reported as under 0.001 µM.

With `COc1cc(NCCc2ccc(CCN3C[C@H](O)[C@@H](O)[C@H](O)[C@H]3CO)cc2)cc(C2=COCCO2)c1` [Compound 1155, (2R,3R,4R,5S)-1-{2-[4-(2-{[3-(5,6-dihydro-1,4-dioxin-2-yl)-5-methoxyphenyl]amino}ethyl)phenyl]ethyl}-2-(hydroxymethyl)piperidine-3,4,5-triol] the IC50 [1, 4] was 1.25 µM, the IC50 [2] was under 0.001 µM and the IC50 [3] was 0.418 µM.

`[N-]=[N+]=Nc1ccc(NCCc2ccc(CCN3C[C@H](O)[C@@H](O)[C@H](O)[C@H]3CO)c3c2OCCO3)c([N+](=O)[O-])c1` [Compound 1173, (2R,3R,4R,5S)-1-[2-(8-{2-[(4-azido-2-nitrophenyl)amino]ethyl}-2,3-dihydro-1,4-benzodioxin-5-yl)ethyl]-2-(hydroxymethyl)piperidine-3,4,5-triol] showed an IC50 [1, 4] of 0.157 µM, an IC50 [2] of 0.666 µM and an IC50 [3] of 0.048 µM.

`[N-]=[N+]=Nc1ccc(NCCNc2cc(Cl)cc(CCN3C[C@H](O)[C@@H](O)[C@H](O)[C@H]3CO)c2)c([N+](=O)[O-])c1` [Compound 1143, (2R,3R,4R,5S)-1-{2-[3-({2-[(4-azido-2-nitrophenyl)amino]ethyl}amino)-5-chlorophenyl]ethyl}-2-(hydroxymethyl)piperidine-3,4,5-triol] gave an IC50 [1, 4] of 0.334 µM, an IC50 [2] of 0.002 µM and an IC50 [3] of 2.06 µM.

For `COc1cc(CC2CCOC2)cc(NCCCCCCN2C[C@H](O)[C@@H](O)[C@H](O)[C@H]2CO)c1` (stereo partly drawn) [Compound 1141, (2R,3R,4R,5S)-2-(hydroxymethyl)-1-[6-({3-methoxy-5-[(oxolan-3-yl)methyl]phenyl}amino)hexyl]piperidine-3,4,5-triol], the IC50 [1, 4] was 1.16 µM, the IC50 [2] was 0.139 µM and the IC50 [3] was 0.043 µM.

With `[N-]=[N+]=Nc1ccc(NCCc2cc(Br)cc(CCN3C[C@H](O)[C@@H](O)[C@H](O)[C@H]3CO)c2)c([N+](=O)[O-])c1` [Compound 1140, (2R,3R,4R,5S)-1-[2-(3-{2-[(4-azido-2-nitrophenyl)amino]ethyl}-5-bromophenyl)ethyl]-2-(hydroxymethyl)piperidine-3,4,5-triol] the IC50 [1, 4] was 0.153 µM, the IC50 [2] was 0.045 µM and the IC50 [3] was 3.12 µM.

`COCCc1ccc(CCCCCN2C[C@H](O)[C@@H](O)[C@H](O)[C@H]2CO)cc1` [Compound 1307, (2R,3R,4R,5S)-2-(hydroxymethyl)-1-{5-[4-(2-methoxyethyl)phenyl]pentyl}piperidine-3,4,5-triol] was tested, and the IC50 [1] was 1.16 µM, the IC50 [2] was 0.077 µM and the IC50 [3] was 0.032 µM.

`COc1cc(-c2cnccn2)ccc1NCCCCCCN1C[C@H](O)[C@@H](O)[C@H](O)[C@H]1CO` [Compound 1199, (2R,3R,4R,5S)-2-(hydroxymethyl)-1-(6-{[2-methoxy-4-(pyrazin-2-yl)phenyl]amino}hexyl)piperidine-3,4,5-triol] showed an IC50 [1, 4] of 0.077 µM, an IC50 [2] of 0.012 µM and an IC50 [3] of 0.008 µM.

Work on `OC[C@@H]1[C@@H](O)[C@H](O)[C@@H](O)CN1CCc1ccc(CCNc2cc(Cl)cc(C3=COCCO3)c2)cc1` [Compound 1161, (2R,3R,4R,5S)-1-{2-[4-(2-{[3-chloro-5-(5,6-dihydro-1,4-dioxin-2-yl)phenyl]amino}ethyl)phenyl]ethyl}-2-(hydroxymethyl)piperidine-3,4,5-triol] yielded an IC50 [1, 4] of 0.729 µM, an IC50 [2] of 0.002 µM and an IC50 [3] of 0.273 µM.

In the case of `Cc1cc(-c2ccco2)ccc1NCc1ccc(CN2C[C@H](O)[C@@H](O)[C@H](O)[C@H]2CO)cc1` [Compound 1324, (2R,3R,4R,5S)-1-{[4-({[4-(furan-2-yl)-2-methylphenyl]amino}methyl)phenyl]methyl}-2-(hydroxymethyl)piperidine-3,4,5-triol], the IC50 [1] is reported as under 0.001 µM, the IC50 [2] is reported as 0.318 µM and the IC50 [3] is reported as under 0.001 µM.

For `COc1cc(NCCc2ccc(CCN3C[C@H](O)[C@@H](O)[C@H](O)[C@H]3CO)cc2)cc(-c2ncccn2)c1` [Compound 1156, (2R,3R,4R,5S)-2-(hydroxymethyl)-1-{2-[4-(2-{[3-methoxy-5-(pyrimidin-2-yl)phenyl]amino}ethyl)phenyl]ethyl}piperidine-3,4,5-triol], the IC50 [1, 4] was 1.27 µM, the IC50 [2] was 0.118 µM and the IC50 [3] was 0.287 µM.
